Values of other authors, collected in PMC6442678 (Journal of medicinal chemistry, 2018).

Conditions: mice, 24h after injection ref 52

Mn-EDTA-BTA
injected Mn retained: > 50%
